Series [1] has as its system Antibody Induced Myasthenia Gravis Model in Female Lewis Rats. In words: accelerated rotating rod test (Rotarod) in antibody induced myasthenia gravis model. As to conditions: single oral dosage on day 2 (48 h after antibody); levosimendan 0.25 mg/kg, active metabolite (II) 0.025 mg/kg; measured 0.5 h, 1 h, 2 h after treatment; FIG. 1. Format: in vivo. How it is done: (§1) The effects of levosimendan and its active metabolite (II) on skeletal muscle weakness were studied in an experimental model of Myasthenia Gravis (Russell A J et al., Nat Med 18 (3), 2012, 452-5). Myasthenia Gravis was induced in female Lewis rats by injecting 500 μg/kg of nAChRα1/3/5 antibody (SC-58604, Santa Cruz Biotechnology) intraperitoneally on day 0. Animals with 40-70% drop in muscle strength from baseline at 48 h after administration of the antibody were randomized into treatment groups: 1) Vehicle control (n=6) (0.5% Methocel 5 ml/kg orally), 2) Levosimendan (n=6) (0.25 mg/kg orally), 3) Active metabolite (II) (n=6) (0.025 mg/kg orally).
Coordination, balance, and motor skill acquisition were tested using an accelerated rotating rod test (Rotarod, Ugo Basile, Comerio, Italy). Rats were placed on a rod that accelerated smoothly from 4 to 40 rpm over a period of 5 min. The length of time that each animal was able to stay on the rod was recorded. Three consecutive measurements were performed. Rats were trained for the test four times one day before and twice on the day of antibody injection. Effects of different drug treatments on Rotarod response were measured 0.5 h, 1 h, and 2 h after oral treatment on day 2, i.e. 48 hours after the induction of Myasthenia Gravis.
(In general: In the rotarod test animals must keep their balance on a rotating rod.)

A short description of series [2]: pharmacokinetics (half-life). The note with it: rat, in vivo; "in rats" printed for the active metabolite (II) only; read-out: t½ (converted).
Series [3] deals with Antibody Induced Myasthenia Gravis Model in Female Lewis Rats. In words: treadmill exercise capacity test in antibody induced myasthenia gravis model. Format: in vivo. As to conditions: 2 h post-dosing of repeated oral dosage on day 3 (72 h after antibody); levosimendan 0.25 mg/kg, active metabolite (II) 0.025 mg/kg; FIG. 2. How it is done:
as §1
Exercise capacity measurements were performed with airtight treadmill (Accupacer treadmill, Accuscan Instruments, USA) connected to a respiratory gas analysing system. Rehearsals and exercise capacity measurements were started with familiarising the rats with the treadmill chambers for 15 minutes (restmill). The exercise program consisted of 15 min running at 10 m/min until the rat was incapable to keep up the speed despite of electric shock motivation. Rats were trained for the test three times one day before and twice on the day of antibody injection. Effects of different drug treatments on treadmill responses were measured 1 h and 2 h after oral treatment on day 3 (72 h after induction of Myasthenia Gravis).

Turning to `CC1CC(=O)NN=C1c1ccc(NN=C(C#N)C#N)cc1` (single isomer, unassigned) [Levosimendan, [[4-(1,4,5,6-tetrahydro-4-methyl-6-oxo-3-pyridazinyl)phenyl]hydrazono]propanedinitrile], in series [1], the “effect on muscle function in Rotarod test (time able to stay on the rotating rod)” value is “acute and transient improvement in muscle function”. Besides, the half-life in series [2] is 0.7 h. The “effect on skeletal muscle function in treadmill test (exercise duration)” value in series [3] is listed as “positive effect”.
With `CC(=O)Nc1ccc(C2=NNC(=O)C[C@H]2C)cc1` [active metabolite (II), (R)—N-[4-(1,4,5,6-tetrahydro-4-methyl-6-oxo-3-pyridazinyl)phenyl]-acetamide], in series [1], the “effect on muscle function in Rotarod test (time able to stay on the rotating rod)” value was “acute and transient improvement in muscle function”. In addition, the half-life in series [2] was 5 h. In series [3], the “effect on skeletal muscle function in treadmill test (exercise duration)” value is given as “positive effect”.

These data come from patent US10357492B2, “Levosimendan for use in the treatment of motor neuron diseases (E.G. ALS)” (Orion Corporation, priority 2014, dated 2019).
